# Assay results as given in patent US20080213219A1, “Methods for treatment and management of macular degeneration using 3-(4-amino-1-oxo-1,3-dihydro-isoindol-2-yl)-piperidine-2,6-dione” (Celgene Corporation, priority 2002, published 2008).
# Experiments:
# TNF-α production [1] = assay: Inhibition of TNF-α production following LPS-stimulation of human PBMC; format: cell-based; conditions: LPS-stimulated PBMC, read-out: IC50 for inhibiting production of TNF-α
# From the text: (§1) In a specific embodiment, inhibitions of TNF-α production following LPS-stimulation of human PBMC and human whole blood by 3-(4-amino-1-oxo-1,3-dihydro-isoindol-2-yl)-piperidine-2,6-dione, 4-(amino)-2-(2,6-dioxo-(3-piperidyl))-isoindoline-1,3-dione or thalidomide were investigated in vitro.
# TNF-α production [2] = assay: Inhibition of TNF-α production following LPS-stimulation of human whole blood; format: cell-based; conditions: LPS-stimulated human whole blood; read-out: IC50 for inhibiting production of TNF-α
# From the text: as §1
# [3] = tested on: TNF-α, IL1β, IL6, IL10 production; assay: LPS-stimulated cytokine production by PBMC; format: cell-based
# MD [4] = conditions: cited from earlier work
# MD [5] = conditions: intravitreal injection, one-year period, patients with MD; cited from earlier work
# laser-induced CNVM = conditions: intravitreal injection, monkeys; cited from earlier work
# macular degeneration = assay: Clinical study in patients with macular degeneration, adjuvant to photodynamic therapy with verteporfin; format: in vivo; conditions: about 10 mg/day for 20 weeks as adjuvant to verteporfin photodynamic therapy
# Description: Immunomodulatory compounds are administered in an amount of about 0.1 to about 25 mg per day to patients with macular degeneration. In a specific embodiment, clinical studies are performed with forty patients with macular degeneration, who are divided into two groups. The first group receives conventional treatment for closing the leaking choroidal vessels (characteristic of this disease) by photodynamic therapy with verteporfin. Opthalmol 1999 (117): 1329-1345. The second group receives the same conventional therapy with verteporfin and 3-(4-amino-1-oxo-1,3-dihydro-isoindol-2-yl)-piperidine-2,6-dione in an amount of about 10 mg/day as an adjuvant for 20 weeks.
# However, the first group without 3-(4-amino-1-oxo-1,3-dihydro-isoindol-2-yl)-piperidine-2,6-dione experiences progressive reperfusion of the ablated vessels several weeks after treatment. Progressive visual loss follows which requires the photodynamic therapy to be repeated.
Compound,IC50 (TNF-α production [1]) [nM],IC50 (TNF-α production [2]) [nM],LPS-stimulated production of IL1β [3],LPS-stimulated production of IL6 [3],LPS-stimulated production of TNF-α [3],production of the anti-inflammatory cytokine IL10 [3],efficacy at treating MD (MD [4]; clinical trial),rate of adverse effects (MD [4]; in vivo),prevention of severe visual loss (MD [5]),growth of laser-induced CNVM (laser-induced CNVM),neovascular cascade / duration of the effects of photodynamic therapy (macular degeneration)
"Nc1cccc2c1C(=O)N(C1CCC(=O)NC1=O)C2=O (centres unmarked) [4-(Amino)-2-(2,6-dioxo(3-piperidyl))-isoindoline-1,3-dione]",~24,~25,dose-dependent inhibition,dose-dependent inhibition,dose-dependent inhibition,increased production,,,,,
interferon-α,,,,,,,ineffective,high rate of adverse effects,,,
C[C@]12C=CC(=O)C=C1CC[C@H]1[C@@H]3C[C@@H](O)[C@](O)(C(=O)CO)[C@@]3(C)C[C@H](O)[C@@]12F [triamcinolone],,,,,,,,,fails to prevent,inhibits,
"Nc1cccc2c1CN(C1CCC(=O)NC1=O)C2=O (centres unmarked) [3-(4-Amino-1-oxo-1,3-dihydro-isoindol-2-yl)-piperidine-2,6-dione]",~100,~480,dose-dependent inhibition,dose-dependent inhibition,dose-dependent inhibition,increased production,,,,,sufficiently hindered
